Measurements from patent publication US10590140B2, “Tetrahydropyrimidodiazepine and dihydropyridodiazepine compounds for treating pain and pain related conditions” (ESTEVE PHARMACEUTICALS, S.A., priority 2016, dated 2020).

Target: human α2δ-1 subunit of Cav2.2 calcium channel (Homo sapiens (Human), UniProt P54289)
Assay: Binding assay to human α2δ-1 subunit of Cav2.2 calcium channel ([3H]-Gabapentin)
Details: binding to α2δ-1, [3H]-Gabapentin; read-out: Ki (nM) α2δ-1
Outline: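 [3H]-gabapentin binding, 60 min at 27° C; nonspecific binding defined with 10 μM pregabalin. Terminated by filtration on PEI-presoaked GF/C filters, ice-cold 50 mM Tris-HCl pH 7.4 washes, then scintillation counting.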

Chain of human α2δ-1 subunit of Cav2.2 calcium channel (P54289 25-1103): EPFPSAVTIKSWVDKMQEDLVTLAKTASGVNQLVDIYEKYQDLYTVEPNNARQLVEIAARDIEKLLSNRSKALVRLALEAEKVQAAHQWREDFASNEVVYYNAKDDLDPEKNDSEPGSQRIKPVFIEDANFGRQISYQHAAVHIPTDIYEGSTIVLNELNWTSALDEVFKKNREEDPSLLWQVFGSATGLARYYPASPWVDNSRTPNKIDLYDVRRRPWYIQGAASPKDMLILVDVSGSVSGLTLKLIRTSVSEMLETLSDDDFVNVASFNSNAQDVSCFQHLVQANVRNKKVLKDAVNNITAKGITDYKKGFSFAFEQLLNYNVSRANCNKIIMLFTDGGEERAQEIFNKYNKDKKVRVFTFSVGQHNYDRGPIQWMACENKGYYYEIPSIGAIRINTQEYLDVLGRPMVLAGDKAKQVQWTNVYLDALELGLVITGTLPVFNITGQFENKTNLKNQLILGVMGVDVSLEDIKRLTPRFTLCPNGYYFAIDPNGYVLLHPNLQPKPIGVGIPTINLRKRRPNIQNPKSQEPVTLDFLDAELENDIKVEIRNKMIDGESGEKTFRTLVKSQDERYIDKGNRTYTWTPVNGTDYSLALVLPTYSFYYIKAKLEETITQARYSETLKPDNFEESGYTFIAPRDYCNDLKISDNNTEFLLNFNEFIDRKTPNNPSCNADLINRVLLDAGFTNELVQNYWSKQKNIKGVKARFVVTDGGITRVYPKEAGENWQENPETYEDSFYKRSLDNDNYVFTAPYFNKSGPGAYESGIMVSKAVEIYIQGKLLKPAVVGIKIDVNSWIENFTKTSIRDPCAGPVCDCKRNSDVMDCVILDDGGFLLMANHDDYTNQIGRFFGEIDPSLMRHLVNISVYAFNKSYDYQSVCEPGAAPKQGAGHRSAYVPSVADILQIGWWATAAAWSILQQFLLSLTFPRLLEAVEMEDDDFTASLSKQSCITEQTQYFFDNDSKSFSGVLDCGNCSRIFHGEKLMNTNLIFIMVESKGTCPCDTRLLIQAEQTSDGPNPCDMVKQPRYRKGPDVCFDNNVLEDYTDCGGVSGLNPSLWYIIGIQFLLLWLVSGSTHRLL

| SMILES | Ki [nM] |
| --- | --- |
| CCNc1ncc2c(n1)N(C)CCN(c1cccc(C3=CCN(C(=O)OC(C)(C)C)CC3)c1)C2=O [Example 233, tert-Butyl 4-(3-(2-(ethylamino)-9-methyl-5-oxo-5,7,8,9-tetrahydro-6H-pyrimido[4,5-e][1,4]diazepin-6-yl)phenyl)-3,6-dihydropyridine-1(2H)-carboxylate] | > 3000 |
| CCNc1ncc2c(n1)N(C)CCN(c1cccc(C3CCN(C(=O)OC(C)(C)C)CC3)c1)C2=O [Example 234, tert-Butyl 4-(3-(2-(ethylamino)-9-methyl-5-oxo-5,7,8,9-tetrahydro-6H-pyrimido[4,5-e][1,4]diazepin-6-yl)phenyl)piperidine-1-carboxylate] | > 3000 |
| CCNc1ncc2c(n1)N(C)CCN(c1cccc(C3CCNCC3)c1)C2=O [Example 235, 2-(Ethylamino)-9-methyl-6-(3-(piperidin-4-yl)phenyl)-6,7,8,9-tetrahydro-5H-pyrimido[4,5-e][1,4]diazepin-5-one] | 100 to 500 |
| CCNc1ncc2c(n1)N(C)CCN(c1cccc(-n3cc(CN(CC4CC4)CC4CC4)nn3)c1)C2=O [Example 245, 6-(3-(4-((bis (cyclopropylmethyl)amino)methyl)-1H-1,2,3-triazol-1-yl)phenyl)-2-(ethylamino)-9-methyl-6,7,8,9-tetrahydro-5H-pyrimido[4,5-e][1,4]diazepin-5-one] | 500 to 3000 |
| CCNc1ncc2c(n1)N(C)CCN(c1cccc(-n3cc(CCN(C)Cc4ccccc4)nn3)c1)C2=O [Example 247, 6-(3-(4-(2-(benzyl(methyl)amino)ethyl)-1H-1,2,3-triazol-1-yl)phenyl)-2-(ethylamino)-9-methyl-6,7,8,9-tetrahydro-5H-pyrimido[4,5-e][1,4]diazepin-5-one] | 500 to 3000 |
| CCNc1ncc2c(n1)N(C)CCN(c1cccc(-n3cc(CCN(C)C)nn3)c1)C2=O [Example 248, 6-(3-(4-(2-(dimethylamino)ethyl)-1H-1,2,3-triazol-1-yl)phenyl)-2-(ethylamino)-9-methyl-6,7,8,9-tetrahydro-5H-pyrimido[4,5-e][1,4]diazepin-5-one] | 100 to 500 |
| CCNc1ncc2c(n1)N(C)CCN(c1cccc(-n3cc(CCN(C)CCc4ccccc4)nn3)c1)C2=O [Example 249, 2-(ethylamino)-9-methyl-6-(3-(4-(2-(methyl(phenethyl)amino)ethyl)-1H-1,2,3-triazol-1-yl)phenyl)-6,7,8,9-tetrahydro-5H-pyrimido[4,5-e][1,4]diazepin-5-one] | 100 to 500 |
| CCNc1ncc2c(n1)N(C)CCN(c1cccc(Cn3cc(CN(C)Cc4ccccc4)nn3)c1)C2=O [Example 250, 6-(3-((4-((benzyl (methyl)amino)methyl)-1H-1,2,3-triazol-1-yl)methyl)phenyl)-2-(ethylamino)-9-methyl-6,7,8,9-tetrahydro-5H-pyrimido[4,5-e][1,4]diazepin-5-one] | 500 to 3000 |
| CCNc1ncc2c(n1)N(C)CCN(c1cccc(-c3nnc(CN(C)Cc4ccccc4)o3)c1)C2=O [Example 255, 6-(3-(5-((benzyl(methyl)amino)methyl)-1,3,4-oxadiazol-2-yl)phenyl)-2-(ethylamino)-9-methyl-6,7,8,9-tetrahydro-5H-pyrimido[4,5-e][1,4]diazepin-5-one] | 100 to 500 |
| CCNc1ncc2c(n1)N(C)CCN(c1cccc(OCCCN(C)C)c1)C2=O [Example 257, 6-(3-(3-(dimethylamino)propoxy)phenyl)-2-(ethylamino)-9-methyl-6,7,8,9-tetrahydro-5H-pyrimido[4,5-e][1,4]diazepin-5-one] | 100 to 500 |
| CCNc1ncc2c(n1)N(C)CCN(c1cccc(OCCCN(C)CCc3ccccc3)c1)C2=O [Example 258, 2-(ethylamino)-9-methyl-6-(3-(3-(methyl(phenethyl)amino)propoxy)phenyl)-6,7,8,9-tetrahydro-5H-pyrimido[4,5-e][1,4]diazepin-5-one] | 500 to 3000 |
| CCNc1ncc2c(n1)N(C)CCN(c1cccc(C3CCN(Cc4ccccc4)CC3)c1)C2=O [Example 259, 6-(3-(1-benzylpiperidin-4-yl)phenyl)-2-(ethylamino)-9-methyl-6,7,8,9-tetrahydro-5H-pyrimido[4,5-e][1,4]diazepin-5-one] | 100 to 500 |
| CCNc1ncc2c(n1)N(C)CCN(c1cccc(C3CCN(C)CC3)c1)C2=O [Example 260, 2-(ethylamino)-9-methyl-6-(3-(1-methylpiperidin-4-yl)phenyl)-6,7,8,9-tetrahydro-5H-pyrimido[4,5-e][1,4]diazepin-5-one] | 100 to 500 |
| CCNc1ncc2c(n1)N(C)CCN(c1cccc(OC(C)CN(C)Cc3ccccc3)c1)C2=O (stereo not drawn) [Example 262, 6-(3-((1-(benzyl(methyl)amino)propan-2-yl)oxy)phenyl)-2-(ethylamino)-9-methyl-6,7,8,9-tetrahydro-5H-pyrimido[4,5-e][1,4]diazepin-5-one] | 500 to 3000 |
| CCNc1ncc2c(n1)N(C)CCN(c1cccc(OC(C)CN(C)CCc3ccccc3)c1)C2=O (stereo not drawn) [Example 263, 2-(ethylamino)-9-methyl-6-(3-((1-(methyl(phenethyl)amino)propan-2-yl)oxy)phenyl)-6,7,8,9-tetrahydro-5H-pyrimido[4,5-e][1,4]diazepin-5-one] | 500 to 3000 |
| CCNc1ncc2c(n1)N(C)CCN(c1cccc(OC3CCN(Cc4ccccc4)C3)c1)C2=O (stereo not drawn) [Example 266, 6-(3-((1-benzylpyrrolidin-3-yl)oxy)phenyl)-2-(ethylamino)-9-methyl-6,7,8,9-tetrahydro-5H-pyrimido[4,5-e][1,4]diazepin-5-one] | 100 to 500 |
| CCNc1ncc2c(n1)N(C)CCN(c1cccc(OC(CN(C)Cc3ccccc3)C(C)C)c1)C2=O (stereo not drawn) [Example 267, 6-(3-((1-(benzyl(methyl)amino)-3-methylbutan-2-yl)oxy)phenyl)-2-(ethylamino)-9-methyl-6,7,8,9-tetrahydro-5H-pyrimido[4,5-e][1,4]diazepin-5-one] | 500 to 3000 |
| CCNc1ncc2c(n1)N(C)CCN(c1cccc(OC(CN(C)CCc3ccccc3)C(C)C)c1)C2=O (stereo not drawn) [Example 268, 2-(ethylamino)-9-methyl-6-(3-((3-methyl-1-(methyl(phenethyl)amino)butan-2-yl)oxy)phenyl)-6,7,8,9-tetrahydro-5H-pyrimido[4,5-e][1,4]diazepin-5-one] | 500 to 3000 |
| CCNc1ncc2c(n1)N(C)CCN(c1cccc(CCN(C)Cc3ccccc3)c1)C2=O [Example 269, 6-(3-(2-(benzyl(methyl)amino)ethyl)phenyl)-2-(ethylamino)-9-methyl-6,7,8,9-tetrahydro-5H-pyrimido[4,5-e][1,4]diazepin-5-one] | 100 to 500 |
| CCNc1ncc2c(n1)N(C)CCN(c1cccc(CCN(C)CCc3ccccc3)c1)C2=O [Example 270, 2-(ethylamino)-9-methyl-6-(3-(2-(methyl(phenethyl)amino)ethyl)phenyl)-6,7,8,9-tetrahydro-5H-pyrimido[4,5-e][1,4]diazepin-5-one] | 100 to 500 |
| CCNc1ncc2c(n1)N(C)CCN(c1cccc(COC3(c4ccccc4)CCN(C)CC3)c1)C2=O [Example 272, 2-(ethylamino)-9-methyl-6-(3-(((1-methyl-4-phenylpiperidin-4-yl)oxy)methyl)phenyl)-6,7,8,9-tetrahydro-5H-pyrimido[4,5-e][1,4]diazepin-5-one] | 500 to 3000 |
